From patent US20180045715A1, “STRUCTURE AND FUNCTION OF THE SALICYCLIC ACID BINDING SITES ON HUMAN HMGB1 AND METHODS OF USE THEREOF FOR THE RATIONAL DESIGN OF BOTH SALICYCLIC ACID DERIVATIVES AND OTHER AGENTS THAT ALTER ANIMAL AND PLANT HMGBS ACTIVITIES” (Boyce Thompson Institute for Plant Research, Inc., priority 2015, published 2018)
Substitutions are numbered along the chain they refer to.

Legend:
AtHMGB3 = target: T1, AtHMGB3 (Arabidopsis thaliana, UniProt P93047); details: co-infiltration of 1-10 μM SA, 1 μM AtHMGB3
T1 sequence (P93047 1-141): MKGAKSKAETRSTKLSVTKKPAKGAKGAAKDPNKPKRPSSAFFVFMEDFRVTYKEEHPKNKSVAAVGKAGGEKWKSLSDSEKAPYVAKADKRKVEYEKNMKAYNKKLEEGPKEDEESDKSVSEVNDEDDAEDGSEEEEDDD
Method: To detect the phosphorylation of Arabidopsis MAPKs (MPK3/4/6), 3 to 4 week-old soil grown Arabidopsis leaves were infiltrated with 1 μM AtHMGB3 or 1 μM Pep1 peptide ([…]; synthesized by GenScript USA Inc.). Two leaf disks were cut from the leaf center of two different leaves using a cork borer (diameter=0.7 cm) and immediately frozen and ground to fine powder in liquid nitrogen. […] The protein concentration of supernatant was measured using the Bradford reagent (Bio-Rad). Forty μg of proteins per sample was separated on the 8% SDS-PAGE and transferred to a PVDF membrane for immunoblotting using the anti-phospho-p44/42 MAPK antibody (Cell Signaling Technology). The large subunit of Rubisco was visualized by Coomassie Brilliant Blue (CBB) staining of the PVDF membrane in order to assess consistency of loading.

full-length HMGB1 = target: T2, full-length HMGB1 (Homo sapiens, UniProt P09429); assay: Saturation transfer difference (STD) NMR; type: binding
T2 construct: (i) full length: residues 2-215; hexaHis (TEV-cleavable) (N, cleaved yes); made in house
T2 sequence (P09429 2-215): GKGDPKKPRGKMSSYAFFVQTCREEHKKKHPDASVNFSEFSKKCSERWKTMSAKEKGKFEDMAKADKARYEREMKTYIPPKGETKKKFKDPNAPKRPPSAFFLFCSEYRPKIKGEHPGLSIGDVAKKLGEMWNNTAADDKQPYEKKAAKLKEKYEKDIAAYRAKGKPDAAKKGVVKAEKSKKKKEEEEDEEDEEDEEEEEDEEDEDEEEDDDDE
Description: NMR can be used to detect protein ligand interactions either by protein-detected experiments (Lepre, Moore et al. 2004), detecting changes in the frequencies of resonances of the protein sample due to ligand binding (protein-detected chemical shift perturbation (CSP) experiments), or by ligand-detected experiments (Lepre, Moore et al. 2004), in which NMR properties of the ligands due to ligand-protein interactions are detected. Protein-detected ligand binding experiments are usually done using isotope-enriched protein samples which can be studied by isotope-filtered NMR experiments, including for example ^15N-^1H-HSQC (Kay, Keifer et al. 1992). Ligand-detected experiments include the Waterlogsy experiment (Meyer and Peters 2003, Lepre, Moore et al. 2004, Furihata, Shimotakahara et al. 2008), which detects interactions in the ternary complex formed by the protein, the ligand, and one or more water molecules, and the Saturation Transfer Difference (STD) NMR experiments (Mayer and Meyer 2001, Lepre, Moore et al. 2004, Wang, Liu et al. 2004), which detects magnetization transfer from the protein to the ligand in the protein-ligand complex. The Waterlogsy experiment is a more sensitive experiment, typically employed to detect qualitatively if there is an interaction between protein and ligand. […]

K12A/K68A HMGB1^RE = target: T3, K12A/K68A HMGB1^RE (Homo sapiens, UniProt P09429, K12A/K68A); assay: Chemotaxis assay with mutant K12A/K68A HMGB1^RE; type: cell-based; details: 1 nM mutant HMGB1^RE, 30 μM SA
T3 construct: (i) full length: residues 2-215; made in house
T3 sequence (P09429 2-215 K12A/K68A): T2 sequence (P09429 2-215) with K11A, K67A
Method: (§1) Cell migration was assayed using Boyden chambers (Venereau et al., 2012). The downside of PVP-free polycarbonate filters (8 μm pores; Millipore) was coated with 50 μg/ml fibronectin (Sigma). Serum-free DMEM (negative control), DMEM containing 0.1 nM fMLP (positive control; Sigma), or DMEM containing 1 nM HMGB1^RE or HMGB1^SS were placed in the lower chamber, together with different concentrations of SA (Sigma). The mouse 3T3 fibroblast cells were cultured in DMEM media supplemented with 10% CS until 90% confluence, washed twice with PBS to eliminate any floating cells, and harvested with trypsin. 50,000 cells in 200 μL were added to the upper chamber, and cells were left to migrate for 3 h at 37° C. Non-migrating cells were removed with a cotton swab, and migrated cells were fixed with ethanol and stained with Giemsa.
Two additional double mutants in Box A were constructed—H27A/R48A and K12A/K68A. […] Since mutant H27A/R48A no longer had chemo-attractant activity, the effect of SA on this activity could not be assessed (FIG. 12).

[1] = after intake of 500 mg of aspirin; cited from earlier work
[2] = target: T4, mutant (R24A/K28A) HMGB1^RE (Homo sapiens, UniProt P09429, K28A/R24A); assay: Chemotaxis assay with mutant R24A/K28A HMGB1^RE; type: cell-based; details: NIH/3T3 fibroblasts
T4 construct: (i) full length: residues 2-215; made in house
T4 sequence (P09429 2-215 R24A/K28A): T2 sequence (P09429 2-215) with R23A, K27A
Method: as §1
An alternative explanation is that SA, at low concentrations, affects another factor in vivo, which results indirectly in suppression of HMGB1^RE-induced chemotaxis. […] Therefore, these residues were mutated to Ala to form the double mutant Arg24Ala/Lys28Ala (R24A/K28A).

O=C(O)c1ccccc1O [SA, salicylic acid]
effect on MPK3/6 activation by AtHMGB3 (AtHMGB3): blocked
STD signal for binding to full-length HMGB1 (full-length HMGB1; 20 μM HMGB1, pH 7.4, SA 6 mM, ac3AESA 0.6-5.8 mM): no STD signal is detected
ligand concentration at which an STD effect for HMGB1 binding is seen (full-length HMGB1; 20 μM HMGB1, SA tested as high as 6 mM): no STD effect
inhibition by SA of K12A/K68A HMGB1^RE chemo-attractant activity (K12A/K68A HMGB1^RE): retained
time to reach the stated SA plasma concentration [1]: ≤ 1 h
inhibition of R24A/K28A HMGB1^RE's chemo-attractant activity [2]: not inhibited
